Assay results taken from patent US5661130A, “Absorption enhancers for drug administration” (The UAB Research Foundation, priority 1993, dated 1997).

Legend:
[1] = system: normal rats with blood glucose elevated by xylazine/ketamine anesthesia; assay: Hypoglycemic effect of insulin eye drops with absorption enhancer in anesthetized rats; type: in vivo, rat
Description: This mimics the hyperglycemic state seen in diabetic animals and humans. The elevated levels of D-glucose that occur in response to anesthesia provide an optimal system in which to measure any systemic hypoglycemic action of insulin-containing eye drops.
Adult male Sprague-Dawley rats (250-350g) were fed ad libitum, and experiments were conducted between 10:00 a.m. and 3:00 p.m. Rats were anesthetized with a mixture of xylazine (7.5 mg/kg) and ketamine (50 mg/kg) given intraperitoneally (IP) and allowed to stabilize for 50-90 min before the administration of eye drops. […] Blood D-glucose values were measured by collecting a drop of blood from the tail vein at 5-10 min intervals throughout the experiment and applying the blood to glucometer strips (Chemstrip bG) according to directions provided with the instrument (Accu-Chek II, Boehringer Mannheim Diagnostics; Indianapolis, Ind.).
(§1) Eye drops were instilled at time 0 using a plastic disposable pipette tip with the eyes held open, and the rat was kept in a horizontal position on a warming pad (37° C.) throughout the protocol. […] Octyl β-D-maltoside, decyl-β-D-maltoside, dodecyl-β-D-maltoside, tridecyl-β-D-maltoside and tetradecyl-β-D-maltoside were obtained from Anatrace, Inc. (Maumee, Ohio).

[2] = system: monocytes or endothelial cells; settings: DiCorleto et al.; cited from earlier work
[3] = system: intact mouse fibrosarcoma cells; settings: LeGrue et al.; cited from earlier work
rats = assay: Hyperglycemic effect of glucagon eye drops with surfactant; type: in vivo, rat; settings: for Blood Glucose Concentration: glucagon eye drops with 0.5% surfactant agent added after 120 min (after insulin eye drops); for blood D-glucose values after glucagon eye drops (in words): surfactant plus glucagon, rats previously treated with eye drops of same surfactant plus insulin
Description: Glucagon absorption from the eye was measured in rats given eye drops containing various surfactants plus glucagon (30 μg) (Eli Lilly, Indianapolis, Ind.) by monitoring an elevation in blood D-glucose levels. […] Once again, paired animals that received eye drops containing the surfactant agents only, or glucagon only, could be compared to animals receiving eye drops with surfactant agents and glucagon. […] Additionally, the use of glucagon eyedrops to treat a hypoglycemic crisis is now possible provided that an appropriate surfactant agent is included in the eye drop formulation.

rectal mucosa of rats = settings: Murakami et al.; cited from earlier work
[4] = system: normal rats with blood glucose elevated by xylazine/ketamine anesthesia; assay: Hypoglycemic effect of insulin nose drop with absorption enhancer; type: in vivo, rat; settings: nose drop 0.2% insulin with 0.5% tetradecylmaltoside, after eye drops
Description: Adult male Sprague-Dawley rats (250-350g) were fed ad libitum, and experiments were conducted between 10:00 a.m. and 3:00 p.m. Rats were anesthetized with a mixture of xylazine (7.5 mg/kg) and ketamine (50 mg/kg) given intraperitoneally (IP) and allowed to stabilize for 50-90 min before the administration of eye drops. Anesthesia of a normal rat with xylazine/ketamine produces an elevation in blood glucose values which provides an optimal state to determine the systemic hypoglycemic action of insulin-containing eye drops. Blood D-glucose values were measured by collecting a drop of blood from the tail vein at 5-10 min intervals throughout the experiment and applying the blood to glucometer strips (Chemstrip bG) according to directions provided with the instrument (Accu-Chek II, Boehringer Mannheim Diagnostics; Indianapolis, Ind.). Blood D-glucose values ranged from 200 to 400 mg/dl in anesthetized nondiabetic rats.
as §1, with “Ohio). […]” for “Ohio).”

[5] = 0.5% enhancer with 0.2% regular porcine insulin
[6] = 0.25% enhancer with 0.2% regular porcine insulin
[7] = enhancer concentration not singled out (0.125-0.5%), with 0.2% regular porcine insulin

CCCCCCCOC1O[C@H](CO)[C@@H](O)[C@H](O)[C@H]1O (stereo partly drawn) [heptylglucoside, heptylglucopyranoside]
Effect as absorption enhancer on blood glucose, insulin eye drops (in words) [1, 5]: ineffective

CCCCCCCCO[C@@H]1O[C@H](CO)[C@@H](O)[C@H](O)[C@H]1O [Octylglucoside, octyl β-D-glucoside]
viability or morphology of monocytes or endothelial cells [2]: no effect | cytolysis of intact mouse fibrosarcoma cells [3]: non-cytolytic

CCCCCCCCCCCCCOC1OC(CO)C(OC2OC(CO)C(O)C(O)C2O)C(O)C1O [Tridecyl Maltoside, tridecyl-β-D-maltoside]
Effect as absorption enhancer on blood glucose, insulin eye drops (in words) [1, 6]: sustained for the two hour time course of the experiment | Effect as absorption enhancer on blood glucose, insulin eye drops (in words) [1, 5]: effective | Blood Glucose Concentration ([1]; 0.5% surfactant agent, time -10 min, before insulin eye drops): 307 mg/dL | Blood Glucose Concentration ([1]; 0.5% surfactant agent, time -20 min, before insulin eye drops): 255 mg/dL | Effect as absorption enhancer on blood glucose, insulin eye drops (in words) [1, 7]: dose-dependent effect | Blood Glucose Concentration ([1]; insulin eye drops with 0.5% surfactant agent, time 0 min): 323 mg/dL | Blood Glucose Concentration ([1]; insulin eye drops with 0.5% surfactant agent, time 10 min): 309 mg/dL | Blood Glucose Concentration ([1]; insulin eye drops with 0.5% surfactant agent, time 20 min): 217 mg/dL | Blood Glucose Concentration ([1]; insulin eye drops with 0.5% surfactant agent, time 30 min): 131 mg/dL | Blood Glucose Concentration ([1]; insulin eye drops with 0.5% surfactant agent, time 40 min): 100 mg/dL | Blood Glucose Concentration ([1]; insulin eye drops with 0.5% surfactant agent, time 50 min): 87 mg/dL | Blood Glucose Concentration ([1]; insulin eye drops with 0.5% surfactant agent, time 60 min): 107 mg/dL | Blood Glucose Concentration ([1]; insulin eye drops with 0.5% surfactant agent, time 70 min): 115 mg/dL | Blood Glucose Concentration ([1]; insulin eye drops with 0.5% surfactant agent, time 80 min): 79 mg/dL | Blood Glucose Concentration ([1]; insulin eye drops with 0.5% surfactant agent, time 90 min): 85 mg/dL | Blood Glucose Concentration ([1]; insulin eye drops with 0.5% surfactant agent, time 100 min): 76 mg/dL | Blood Glucose Concentration ([1]; insulin eye drops with 0.5% surfactant agent, time 110 min): 74 mg/dL | Blood Glucose Concentration ([1]; insulin eye drops with 0.5% surfactant agent, time 120 min): 75 mg/dL | Blood Glucose Concentration (rats; time 130 min): 82 mg/dL | Blood Glucose Concentration (rats; time 140 min): 121 mg/dL | Blood Glucose Concentration (rats; time 150 min): 148 mg/dL | Blood Glucose Concentration (rats; time 160 min): 173 mg/dL | Blood Glucose Concentration (rats; time 170 min): 162 mg/dL | Blood Glucose Concentration (rats; time 180 min): 162 mg/dL | Blood Glucose Concentration (rats; time 190 min): 156 mg/dL | blood D-glucose values after glucagon eye drops (in words) (rats): significantly increased

CCCCCCCCCCCCO[C@@H]1O[C@H](CO)[C@@H](O[C@H]2O[C@H](CO)[C@@H](O)[C@H](O)[C@H]2O)[C@H](O)[C@H]1O [Dodecyl Maltoside, dodecyl-β-D-maltoside]
Effect as absorption enhancer on blood glucose, insulin eye drops (in words) ([1]; 0.125% enhancer with 0.2% regular porcine insulin): ineffective | Effect as absorption enhancer on blood glucose, insulin eye drops (in words) [1, 6]: smaller and more transient effect | Effect as absorption enhancer on blood glucose, insulin eye drops (in words) ([1]; 0.375% enhancer with 0.2% regular porcine insulin): equally effective | Effect as absorption enhancer on blood glucose, insulin eye drops (in words) ([1]; 0.5% enhancer with 0.2% regular porcine insulin, listed as dodecyl-β-D-maltoside): prompt and sustained fall in blood glucose levels | Effect as absorption enhancer on blood glucose, insulin eye drops (in words) ([1]; 0.5% enhancer with 0.2% regular porcine insulin, listed as dodecylmaltoside): equally effective | histological change to the rectal tissue (rectal mucosa of rats): without producing any apparent histological change | promoting absorption of dextrans and carboxyfluoroscein across the rectal mucosa (rectal mucosa of rats): effective

CCCCCCCCCCCCCCO[C@@H]1O[C@H](CO)[C@@H](O[C@H]2O[C@H](CO)[C@@H](O)[C@H](O)[C@H]2O)[C@H](O)[C@H]1O [Tetradecyl Maltoside, tetradecyl-β-D-maltoside]
blood glucose levels after nose drop (in words) [4]: further decreased | Effect as absorption enhancer on blood glucose, insulin eye drops (in words) ([1]; 0.125% enhancer with 0.2% regular porcine insulin, listed as tetradecyl maltoside): effective | Effect as absorption enhancer on blood glucose, insulin eye drops (in words) ([1]; 0.125% enhancer with 0.2% regular porcine insulin, listed as tetradecylmaltoside): prompt and prominent drop in blood glucose levels | Effect as absorption enhancer on blood glucose, insulin eye drops (in words) [1, 5]: effective

CCCCCCOC1O[C@H](CO)[C@@H](O)[C@H](O)[C@H]1O (stereo partly drawn) [hexylglucoside, Hexylglucopyranoside]
Effect as absorption enhancer on blood glucose, insulin eye drops (in words) [1, 5]: ineffective

CCCCCCCCCOC1O[C@H](CO)[C@@H](O)[C@H](O)[C@H]1O (stereo partly drawn) [nonylglucoside, nonylglucopyranoside]
Effect as absorption enhancer on blood glucose, insulin eye drops (in words) [1, 5]: effectively stimulated insulin absorption | blood glucose levels ([1]; insulin eye drops with 0.5% nonylglucoside, initial value (from)): 297 mg/dL | blood glucose levels ([1]; insulin eye drops with 0.5% nonylglucoside, reduced value (to)): 150 mg/dL

dodecylsucrose [Dodecyl Sucrose]
blood glucose levels ([1]; insulin eye drops with 0.125% dodecylsucrose, time 0 min): 335 mg/dL | blood glucose levels ([1]; insulin eye drops with 0.125% dodecylsucrose, time 120 min): 150 mg/dL | blood D-glucose values after glucagon eye drops (in words) (rats): significantly increased

decylsucrose
Effect as absorption enhancer on blood glucose, insulin eye drops (in words) [1, 5]: effective in reducing blood glucose levels | blood glucose levels ([1]; insulin eye drops with 0.5% decylsucrose, time 0 min): 313 mg/dL | blood glucose levels ([1]; insulin eye drops with 0.5% decylsucrose, time 120 min): 164 mg/dL

CCCCCCCCO[C@@H]1O[C@H](CO)[C@@H](O[C@H]2O[C@H](CO)[C@@H](O)[C@H](O)[C@H]2O)[C@H](O)[C@H]1O [octylmaltoside, Octyl β-D-maltoside]
Effect as absorption enhancer on blood glucose, insulin eye drops (in words) [1, 7]: no

CCCCCCCCCCO[C@@H]1O[C@H](CO)[C@@H](O[C@H]2O[C@H](CO)[C@@H](O)[C@H](O)[C@H]2O)[C@H](O)[C@H]1O [Decyl Maltoside, decyl-β-D-maltoside]
Effect as absorption enhancer on blood glucose, insulin eye drops (in words) [1, 5]: prompt and sustained fall in blood glucose levels | Effect as absorption enhancer on blood glucose, insulin eye drops (in words) [1, 7]: less | blood D-glucose values after glucagon eye drops (in words) (rats): significantly increased
